From patent publication US7335669B2, “Use of dihydroquinoline to aid in increasing milk production and feed utilization” (Novus International, Inc., priority 2002, dated 2008)

Assays:
[1] = tested on: lactating dairy cows; assay: Example 2: switch-over pen trial, ethoxyquin 65 ppm in feed for three weeks, approximately 2400 lactating dairy cows; assay type: in vivo
Description: Approximately 2400 lactating dairy cows were divided into two treatment groups of four pens per group. The cows in one of the two groups were fed ethoxyquin (at a concentration of 65 ppm by weight based on the weight of the total feed fed to the cows) for three weeks, with the four pens of the other group serving as controls. For the next two weeks, neither of the groups was fed ethoxyquin. The pens were then switched so that the previous control group was fed ethoxyquin (at a concentration of 65 ppm by weight based on the weight of the total feed fed to the cows) for three weeks. Milk production and feed intake were measured and feed efficiencies were calculated. The following table reports the means and pooled SEM results after correction for pen effects (wherein “Treated” refers to the cows receiving the ethoxyquin): […]

[2] = about 125 to about 150 ppm by weight on DMI basis in diet of dairy cattle; cited from earlier work
[3] = tested on: cows; assay: Example 1: two-week feeding regimen at four ethoxyquin concentration levels, twenty-four cows; assay type: in vivo
Description: Each of twenty-four cows was randomly assigned to a feeding regimen of one of four concentration levels of ethoxyquin (0 ppm, 50 ppm, 100 ppm, and 150 ppm by weight on an as fed basis) for a two-week treatment period. Data were collected before and after the feeding regimen. The results were as follows, wherein the ethoxyquin concentration (“Ethox. Dose”) is presented in ppm by weight, on an as fed basis and “TMR” represents the total mixed ration consumed by the cows in pounds per day: […]

[4] = Detection of ethoxyquin in milk from cattle treated by the method; assay type: in vivo
Description: Of course, measurement of chemical levels has limitations. […] In any event, the level of ethoxyquin in the milk produced according to this invention certainly is less than 0.1 ppm by weight.

[5] = tested on: broilers and layers; details: cited from earlier work
[6] = poultry and lambs, dietary ethoxyquin; cited from earlier work
[7] = ethoxyquin 65 ppm by weight of total feed, three weeks, mean after correction for pen effects
[8] = ethoxyquin 50 ppm by weight as fed basis
[9] = ethoxyquin 100 ppm as fed basis
[10] = ethoxyquin 100 ppm by weight as fed basis
[11] = ethoxyquin 150 ppm as fed basis
[12] = ethoxyquin 150 ppm by weight as fed basis

For `CCOc1ccc2c(c1)C(C)=CC(C)(C)N2` [ethoxyquin, 6-ethoxy-1,2-dihydro-2,2,4-trimethylquinoline], the “Difference in milk production, treated vs control” value ([1]; ethoxyquin 65 ppm) was “little difference in milk production”, the “Feed Efficiency As Fed Basis” value ([1]; ethoxyquin 65 ppm by weight of total feed, three weeks, calculated from milk production and feed intake) was 0.89 and the “Feed Intake As Fed Basis” value [1, 7] was 93.5 lbs./day. For the same molecule, the “Feed Intake DMI Basis” value [1, 7] was 60.3 lbs./day, the “Milk Production” value [1, 7] was 83.4 lbs./day and the “Improvement in feed efficiency (pounds of milk produced per pounds of TMR intake)” value ([1]; ethoxyquin 65 ppm vs control, printed as on a dry matter basis) was 4.7%. For the same molecule, the “Ethoxyquin residue in milk” value [2] was “appearance of ethoxyquin in the fat of the resulting milk”, the “Enhancement of milk production, comparison of concentrations” value ([3]; 50 ppm vs 150 ppm by weight, as fed basis) was 50 ppm has yielded greater enhancement of milk production than has 150 ppm and the “Feed Intake (as fed basis), TMR in First Week” value (“Feed Intake … in First Week” for short) ([3]; ethoxyquin 50 ppm as fed basis) was 91 pounds per day. The “Milk Production Based on Feed Efficiency, Lbs. Milk / TMR in First Week” value ([3]; ethoxyquin 50 ppm as fed basis) was 0.87 lbs. Milk Produced/pounds TMR Intake, the “Feed Intake (as fed basis), TMR in Second Week” value (“Feed Intake … in Second Week” below) ([3]; ethoxyquin 50 ppm as fed basis) was 91 pounds per day and the “Milk Production Based on Feed Efficiency, Lbs. Milk / TMR in Second Week” value ([3]; ethoxyquin 50 ppm as fed basis) was 0.91 lbs. Milk Produced/pounds TMR Intake. For the same molecule, the “Milk Produced During First Week” value [3, 8] was 79 lbs./day, the “Milk Produced During Second Week” value [3, 8] was 82 lbs./day and the “Feed Intake … in First Week” value [3, 9] was 92 pounds per day. The “Milk Production Based on Feed Efficiency, Lbs. Milk / TMR in First Week” value [3, 9] was 0.80 lbs. Milk Produced/pounds TMR Intake, the “Feed Intake … in Second Week” value [3, 9] was 91 pounds per day and the “Milk Production Based on Feed Efficiency, Lbs. Milk / TMR in Second Week” value [3, 9] was 0.79 lbs. Milk Produced/pounds TMR Intake. For the same molecule, the “Milk Produced During First Week” value [3, 10] was 74 lbs./day, the “Milk Produced During Second Week” value [3, 10] was 72 lbs./day and the “Feed Intake … in First Week” value [3, 11] was 92 pounds per day. The “Milk Production Based on Feed Efficiency, Lbs. Milk / TMR in First Week” value [3, 11] was 0.76 lbs. Milk Produced/pounds TMR Intake, the “Feed Intake … in Second Week” value [3, 11] was 92 pounds per day and the “Milk Production Based on Feed Efficiency, Lbs. Milk / TMR in Second Week” value [3, 11] was 0.80 lbs. Milk Produced/pounds TMR Intake. For the same molecule, the “Milk Produced During First Week” value [3, 12] was 70 lbs./day, the “Milk Produced During Second Week” value [3, 12] was 74 lbs./day and the “Ethoxyquin detected in milk” value ([4]; milk from cattle treated by the method of the invention) was “no ethoxyquin has been detected”. For the same molecule, the “Level of ethoxyquin in the milk” value ([4]; milk produced according to the invention) was “less than 0.1 ppm by weight”, the “Effectiveness relative to alpha-tocopherol acetate” value ([5]; broiler study, 150 ppm ethoxyquin in feed) was “as effective as about 15 ppm alpha-tocopherol acetate” and the “Lipid oxidation in muscle tissues” value ([5]; dietary ethoxyquin, broilers 75 to 150 ppm, layers 500 ppm in feed) was “prevent lipid oxidation in muscle tissues in broilers and layers”. For the same molecule, the “Ethoxyquin in muscle tissue” value [6] was “detected in the muscle tissue of poultry and lambs”.
